Reference: ChEMBL document CHEMBL1201862, “PubChem BioAssay data set” (2004)
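Test compounds were applied to cells in 96-well plates for 48 hours at 5 doses. GI50: concentration for 50% inhibition of growth.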 Calls of active or inactive are those of the source. Cut-off read from the data, not from the text of the source: active = GI50 up to about 1.1 µM and inactive = higher.

What was measured:
Experiment in all cases: growth of human tumour cells (NCI), 48 h
[1] = system: K562
[2] = system: HOP-92
[3] = system: M14
[4] = system: LOX IMVI
[5] = system: U-251
[6] = system: UACC-257
[7] = system: SN12C
[8] = system: RPMI-8226
[9] = system: SK-MEL-5
[10] = system: HCC 2998
[11] = system: Hs-578T
[12] = system: SF-295
[13] = system: SF-268
[14] = system: UO-31
[15] = system: MOLT-4
[16] = system: T47D
[17] = system: CCRF-CEM
[18] = system: NCI-H522
[19] = system: NCI/ADR-RES
[20] = system: A498

| Compound | GI50 [1] | GI50 [2] | GI50 [3] | GI50 [4] | GI50 [5] | GI50 [6] | GI50 [7] | GI50 [8] | GI50 [9] | GI50 [10] | GI50 [11] | GI50 [12] | GI50 [13] | GI50 [14] | GI50 [15] | GI50 [16] | GI50 [17] | GI50 [18] | GI50 [19] | GI50 [20] |
| --- | --- | --- | --- | --- | --- | --- | --- | --- | --- | --- | --- | --- | --- | --- | --- | --- | --- | --- | --- | --- |
| COc1ccc(-c2cc(-c3ccc(Cl)cc3)n(C3OC(CO)C(O)C(O)C3O)c(=S)c2C#N)cc1 (stereo not drawn) | > 100 µM (inactive) | > 100 µM (inactive) | 30 µM (inactive) | > 100 µM (inactive) | 28.1 µM (inactive) | 47.8 µM (inactive) | > 100 µM (inactive) | 30.5 µM (inactive) | 16.8 µM (inactive) | 64.9 µM (inactive) | > 100 µM (inactive) | > 100 µM (inactive) | 20.6 µM (inactive) | 16.8 µM (inactive) | 5.79 µM (inactive) | 29.2 µM (inactive) |  |  |  |  |
| Oc1ccc(C(O)(c2ccccc2)c2ccccc2)c2ccccc12 | 3.13 µM (inactive) | < 0.01 µM (active) | 2.34 µM (inactive) | 1.25 µM (inactive) | 1.45 µM (inactive) | 6.85 µM (inactive) | 2.22 µM (inactive) |  | 2.67 µM (inactive) |  | 3.88 µM (inactive) | 2.9 µM (inactive) | 2.4 µM (inactive) | 2.97 µM (inactive) | 3.14 µM (inactive) | 2.77 µM (inactive) | 0.019 µM (active) | 2.42 µM (inactive) | 2.1 µM (inactive) |  |
| CCN(CC)C(=S)SC(C(=O)Nc1nnc(-c2ccccc2)o1)c1ccccc1 (stereo not drawn) | 15.7 µM (inactive) |  | 16.1 µM (inactive) | 4.23 µM (inactive) | 16.1 µM (inactive) | 22.9 µM (inactive) | 10.3 µM (inactive) | 24.4 µM (inactive) | 14.6 µM (inactive) |  | 40.3 µM (inactive) | 15.6 µM (inactive) |  | 10.1 µM (inactive) | 2.88 µM (inactive) | 23.7 µM (inactive) |  | 17.8 µM (inactive) | 4.24 µM (inactive) | 18.2 µM (inactive) |
| COc1c(OC(C)C)c(OC(C)C)c2oc(=O)n3c2c1C(c1ccccc1-n1c(C)ccc1C)C=C3 (stereo not drawn) | > 100 µM (inactive) | 53.7 µM (inactive) | 29.2 µM (inactive) | 21.5 µM (inactive) | > 100 µM (inactive) | 45 µM (inactive) | 71.9 µM (inactive) | 64.6 µM (inactive) | 98.4 µM (inactive) | 37.9 µM (inactive) | 18.5 µM (inactive) | 74.3 µM (inactive) | 38.1 µM (inactive) | 36.1 µM (inactive) | 42.5 µM (inactive) |  | 71.9 µM (inactive) | 26.7 µM (inactive) | 33.6 µM (inactive) | 92.5 µM (inactive) |
| COc1ccc2cc(/C=N\NC(=O)Nc3ccc([N+](=O)[O-])cc3)ccc2c1 | 14.8 µM (inactive) | 16 µM (inactive) | 22.6 µM (inactive) | 12 µM (inactive) | 13.6 µM (inactive) | 14.6 µM (inactive) | 12.4 µM (inactive) | 13.8 µM (inactive) | 11.7 µM (inactive) | 14.2 µM (inactive) | 17.5 µM (inactive) | 13.8 µM (inactive) | 12.8 µM (inactive) | 13.6 µM (inactive) | 16.5 µM (inactive) | 14.2 µM (inactive) | > 10 µM (inactive) | 13.5 µM (inactive) | 13.6 µM (inactive) |  |
| O=C1NC(=O)C2(CCC(O)C2)c2cc[n+]([O-])cc21 (stereo not drawn) | > 100 µM (inactive) | > 100 µM (inactive) | > 100 µM (inactive) | > 100 µM (inactive) | > 100 µM (inactive) | > 100 µM (inactive) | > 100 µM (inactive) | > 100 µM (inactive) |  | > 100 µM (inactive) | > 100 µM (inactive) | > 100 µM (inactive) | > 100 µM (inactive) | > 100 µM (inactive) | > 100 µM (inactive) | > 100 µM (inactive) | > 100 µM (inactive) | > 100 µM (inactive) |  | > 100 µM (inactive) |
| Nc1nc(=O)c2cc(NCc3ccc(C(=O)NC(CCC(=O)O)C(=O)O)cc3)ccc2[nH]1 (stereo not drawn) | > 100 µM (inactive) | > 100 µM (inactive) | 20.8 µM (inactive) | 14.1 µM (inactive) | > 100 µM (inactive) | > 100 µM (inactive) | 85.5 µM (inactive) | > 100 µM (inactive) | > 100 µM (inactive) | 39.8 µM (inactive) | > 100 µM (inactive) | 61.8 µM (inactive) | 59 µM (inactive) | 15.1 µM (inactive) | > 100 µM (inactive) | > 100 µM (inactive) | > 100 µM (inactive) | > 100 µM (inactive) | > 100 µM (inactive) |  |
| CN(C)CCN1C(=O)c2cccc3cc([N+](=O)[O-])cc(c23)C1=O [MITONAFIDE] | 1.56 µM (inactive) | 0.255 µM (active) | 0.479 µM (active) | 0.192 µM (active) | 0.213 µM (active) | 0.838 µM (active) | 0.179 µM (active) | 0.443 µM (active) | 0.237 µM (active) | 1.11 µM (active) | 1.04 µM (active) | 0.209 µM (active) | 0.324 µM (active) | 0.248 µM (active) | 0.0406 µM (active) | 0.601 µM (active) | 0.163 µM (active) | 0.281 µM (active) |  | 0.167 µM (active) |
